In ChEMBL document CHEMBL1201862, “PubChem BioAssay data set” (2004):
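In this assay, cells in 96-well plates receive the compound at five concentrations for 48 hours. Endpoints are linearly interpolated between the surrounding concentrations. At the GI50, growth is halved.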 Calls of active or inactive are those of the source. No stated cut-off is given here; in the data, active = GI50 up to about 1.1 µM and inactive = higher.

What was measured:
Test in all cases: DTP human tumour cell line panel, 48 h
SNB-19 = tested on: SNB-19
CCRF-CEM = tested on: CCRF-CEM
UACC-62 = tested on: UACC-62
Hs-578T = tested on: Hs-578T
M14 = tested on: M14
HCT-15 = tested on: HCT-15
HCT-116 = tested on: HCT-116
NCI-H460 = tested on: NCI-H460
HL-60 = tested on: HL-60
MCF7 = tested on: MCF7
MOLT-4 = tested on: MOLT-4
LOX IMVI = tested on: LOX IMVI
MDA-MB-435 = tested on: MDA-MB-435
BT-549 = tested on: BT-549
SF-295 = tested on: SF-295
MDA-MB-231 = tested on: MDA-MB-231

SMILES | GI50 (SNB-19) | GI50 (CCRF-CEM) | GI50 (UACC-62) | GI50 (Hs-578T) | GI50 (M14) | GI50 (HCT-15) [µM] | GI50 (HCT-116) | GI50 (NCI-H460) | GI50 (HL-60) | GI50 (MCF7) | GI50 (MOLT-4) | GI50 (LOX IMVI) | GI50 (MDA-MB-435) | GI50 (BT-549) | GI50 (SF-295) | GI50 (MDA-MB-231)
N#Cc1cc(C#N)c(N)nc1N | > 100 µM (inactive) | > 100 µM (inactive) | > 100 µM (inactive) | > 100 µM (inactive) | > 100 µM (inactive) | > 100 | > 100 µM (inactive) | > 100 µM (inactive) | > 100 µM (inactive) | > 100 µM (inactive) | > 100 µM (inactive) | 29.9 µM (inactive) | > 100 µM (inactive) | > 100 µM (inactive) | > 100 µM (inactive) | > 100 µM (inactive)
COc1ccc2c(C)c(Oc3c(Cl)c(Cl)c(O)c(C#N)c3C#N)oc2c1 | > 100 µM (inactive) | > 100 µM (inactive) | > 100 µM (inactive) | > 100 µM (inactive) | > 100 µM (inactive) | > 100 | > 100 µM (inactive) | > 100 µM (inactive) | > 100 µM (inactive) | > 100 µM (inactive) | > 100 µM (inactive) | > 100 µM (inactive) | > 100 µM (inactive) | > 100 µM (inactive) | > 100 µM (inactive) | > 100 µM (inactive)
CCCOC(=O)C1C2CCC(O2)C1C(=O)O (configuration not stated) | > 100 µM (inactive) | > 100 µM (inactive) | > 100 µM (inactive) | > 100 µM (inactive) | > 100 µM (inactive) | > 100 | > 100 µM (inactive) |  | > 100 µM (inactive) | > 100 µM (inactive) | > 100 µM (inactive) | > 100 µM (inactive) | > 100 µM (inactive) | > 100 µM (inactive) | > 100 µM (inactive) | > 100 µM (inactive)
Cc1cn(C2CC(O)C(Cn3nncc3Cn3ccc(=O)[nH]c3=O)O2)c(=O)[nH]c1=O (configuration not stated) | > 100 µM (inactive) | > 100 µM (inactive) | > 100 µM (inactive) | > 100 µM (inactive) | > 100 µM (inactive) | > 100 | > 100 µM (inactive) |  | > 100 µM (inactive) | > 100 µM (inactive) | > 100 µM (inactive) | > 100 µM (inactive) | > 100 µM (inactive) | > 100 µM (inactive) | > 100 µM (inactive) | > 100 µM (inactive)
Cc1ccc(C(=O)Nc2ccc(CP(=O)(O)O)cc2)cc1NC(=O)c1cccc(N)c1 | > 100 µM (inactive) | > 100 µM (inactive) | > 100 µM (inactive) | > 100 µM (inactive) | > 100 µM (inactive) | > 100 | > 100 µM (inactive) |  | > 100 µM (inactive) | > 100 µM (inactive) | > 100 µM (inactive) | > 100 µM (inactive) | > 100 µM (inactive) | > 100 µM (inactive) | > 100 µM (inactive) | > 100 µM (inactive)
